What was measured:
SNB-75 = assay: Growth inhibition of human SNB75 cells incubated for 48 hrs by sulforhodamine B assay; format: functional, cell-based; settings: SNB-75, 48 h
HOP-62 = assay: Growth inhibition of human HOP62 cells incubated for 48 hrs by sulforhodamine B assay; format: functional, cell-based; settings: HOP-62, 48 h
SF-295 = assay: Growth inhibition of human SF295 cells assessed as cell growth at 0.01 uM incubated for 48 hrs by sulforhodamine B assay relative to control; format: functional; settings: SF-295, 48 h, read-out: Activity
Malme-3M [1] = assay: Growth inhibition of human MALME-3M cells assessed as cell growth at 0.01 uM incubated for 48 hrs by sulforhodamine B assay relative to control; format: functional; settings: read-out: Activity
SK-OV-3 = assay: Growth inhibition of human SKOV3 cells assessed as cell growth at 0.1 uM incubated for 48 hrs by sulforhodamine B assay relative to control; format: functional; settings: SK-OV-3, 48 h, read-out: Activity
U-251 [2] = assay: Growth inhibition of human U251 cells incubated for 48 hrs by sulforhodamine B assay; format: functional, cell-based; settings: U-251, 48 h
CAKI-1 [3] = assay: Growth inhibition of human Caki1 cells assessed as cell growth at 0.1 uM incubated for 48 hrs by sulforhodamine B assay relative to control; format: functional; settings: CAKI-1, 48 h, read-out: Activity
Malme-3M [4] = assay: Growth inhibition of human MALME-3M cells assessed as cell growth at 0.1 uM incubated for 48 hrs by sulforhodamine B assay relative to control; format: functional; settings: read-out: Activity
NCI-H322M [5] = assay: Growth inhibition of human NCI-H322M cells assessed as cell growth at 0.01 uM incubated for 48 hrs by sulforhodamine B assay relative to control; format: functional; settings: read-out: Activity
SF-539 = assay: Growth inhibition of human SF539 cells assessed as cell growth at 100 uM incubated for 48 hrs by sulforhodamine B assay relative to control; format: functional; settings: SF-539, 48 h, read-out: Activity
HCC 2998 = assay: Growth inhibition of human HCC2998 cells assessed as cell growth at 0.1 uM incubated for 48 hrs by sulforhodamine B assay relative to control; format: functional; settings: HCC 2998, 48 h, read-out: Activity
Hs-578T [6] = assay: Growth inhibition of human Hs578T cells assessed as cell growth at 1 uM incubated for 48 hrs by sulforhodamine B assay relative to control; format: functional; settings: read-out: Activity
NCI-H322M [7] = assay: Growth inhibition of human NCI-H322M cells incubated for 48 hrs by sulforhodamine B assay; format: functional, cell-based
UACC-62 = assay: Growth inhibition of human UACC62 cells assessed as cell growth at 0.01 uM incubated for 48 hrs by sulforhodamine B assay relative to control; format: functional; settings: UACC-62, 48 h, read-out: Activity
PC-3 = assay: Growth inhibition of human PC3 cells assessed as cell growth at 100 uM incubated for 48 hrs by sulforhodamine B assay relative to control; format: functional; settings: PC-3, 48 h, read-out: Activity
MDA-MB-435 = assay: Growth inhibition of human MDA-MB-435 cells assessed as cell growth at 0.01 uM incubated for 48 hrs by sulforhodamine B assay relative to control; format: functional; settings: MDA-MB-435, 48 h, read-out: Activity
UO-31 = assay: Growth inhibition of human UO31 cells incubated for 48 hrs by sulforhodamine B assay; format: functional, cell-based; settings: UO-31, 48 h
Hs-578T [8] = assay: Growth inhibition of human Hs578T cells assessed as cell growth at 0.01 uM incubated for 48 hrs by sulforhodamine B assay relative to control; format: functional; settings: read-out: Activity
NCI/ADR-RES = assay: Growth inhibition of human NCI/ADR-RES cells assessed as cell growth at 1 uM incubated for 48 hrs by sulforhodamine B assay relative to control; format: functional; settings: read-out: Activity
HCT-15 = assay: Growth inhibition of human HCT15 cells assessed as cell growth at 0.01 uM incubated for 48 hrs by sulforhodamine B assay relative to control; format: functional; settings: HCT-15, 48 h, read-out: Activity
SK-MEL-2 = assay: Growth inhibition of human SK-MEL-2 cells assessed as cell growth at 10 uM incubated for 48 hrs by sulforhodamine B assay relative to control; format: functional; settings: SK-MEL-2, 48 h, read-out: Activity
U-251 [9] = assay: Growth inhibition of human U251 cells assessed as cell growth at 100 uM incubated for 48 hrs by sulforhodamine B assay relative to control; format: functional; settings: U-251, 48 h, read-out: Activity
KM12 [10] = assay: Growth inhibition of human KM12 cells assessed as cell growth at 0.1 uM incubated for 48 hrs by sulforhodamine B assay relative to control; format: functional; settings: KM12, 48 h, read-out: Activity
KM12 [11] = assay: Growth inhibition of human KM12 cells assessed as cell growth at 0.01 uM incubated for 48 hrs by sulforhodamine B assay relative to control; format: functional; settings: KM12, 48 h, read-out: Activity
MDA-MB-231 = assay: Growth inhibition of human MDA-MB-231 cells assessed as cell growth at 100 uM incubated for 48 hrs by sulforhodamine B assay relative to control; format: functional; settings: MDA-MB-231, 48 h, read-out: Activity
CAKI-1 [12] = assay: Growth inhibition of human Caki1 cells assessed as cell growth at 0.01 uM incubated for 48 hrs by sulforhodamine B assay relative to control; format: functional; settings: CAKI-1, 48 h, read-out: Activity
MOLT-4 = assay: Growth inhibition of human MOLT4 cells assessed as cell growth at 100 uM incubated for 48 hrs by sulforhodamine B assay relative to control; format: functional; settings: MOLT-4, 48 h, read-out: Activity
OVCAR-4 = assay: Growth inhibition of human OVCAR4 cells assessed as cell growth at 0.01 uM incubated for 48 hrs by sulforhodamine B assay relative to control; format: functional; settings: OVCAR-4, 48 h, read-out: Activity
786-0 = assay: Growth inhibition of human 786-0 cells assessed as cell growth at 0.1 uM incubated for 48 hrs by sulforhodamine B assay relative to control; format: functional; settings: 786-0, 48 h, read-out: Activity
NCI-H460 = assay: Growth inhibition of human NCI-H460 cells assessed as cell growth at 100 uM incubated for 48 hrs by sulforhodamine B assay relative to control; format: functional; settings: NCI-H460, 48 h, read-out: Activity
[13] = read-out: LC50 (the source's name)
[14] = read-out: pLC50 (the source's name) (converted)

COc1cc(Cl)cc(-c2nn(-c3cccc(NC(=O)c4ccc(N5CCOCC5)c(C(F)(F)F)c4)c3)cc2-c2ccncc2)c1
GI50 (SNB-75; read-out: GI50): 2 µM | CC50 (SNB-75; [13]): > 100 µM | TGI (SNB-75; read-out: TGI): > 100 µM | GI50 (SNB-75; read-out: pGI50 (converted)): 2.63 µM | CC50 (SNB-75; [14]): > 100 µM | TGI (SNB-75; read-out: pTGI (converted)): > 100 µM | GI50 (HOP-62; read-out: GI50): 6.78 µM | CC50 (HOP-62; [13]): > 100 µM | TGI (HOP-62; read-out: TGI): > 100 µM | GI50 (HOP-62; read-out: pGI50 (converted)): 63.1 µM | CC50 (HOP-62; [14]): > 100 µM | TGI (HOP-62; read-out: pTGI (converted)): > 100 µM | growth at 0.01 µM (SF-295): 90% | growth at 0.01 µM (Malme-3M [1]): 91% | growth at 0.1 µM (SK-OV-3): 102% | IC50 (U-251 [2]): 5.03 µM | GI50 (U-251 [2]; read-out: GI50): 5.03 µM | CC50 (U-251 [2]; [13]): > 100 µM | TGI (U-251 [2]; read-out: TGI): > 100 µM | GI50 (U-251 [2]; read-out: pGI50 (converted)): 5.01 µM | CC50 (U-251 [2]; [14]): > 100 µM | TGI (U-251 [2]; read-out: pTGI (converted)): > 100 µM | growth at 0.1 µM (CAKI-1 [3]): 100% | growth at 0.1 µM (Malme-3M [4]): 85% | growth at 0.01 µM (NCI-H322M [5]): 97% | growth at 100 µM (SF-539): 2% | growth at 0.1 µM (HCC 2998): 94% | growth at 1 µM (Hs-578T [6]): 81% | GI50 (NCI-H322M [7]; read-out: GI50): 7.37 µM | CC50 (NCI-H322M [7]; [13]): > 100 µM | TGI (NCI-H322M [7]; read-out: TGI): > 100 µM | GI50 (NCI-H322M [7]; read-out: pGI50 (converted)): 74.1 µM | CC50 (NCI-H322M [7]; [14]): > 100 µM | TGI (NCI-H322M [7]; read-out: pTGI (converted)): > 100 µM | growth at 0.01 µM (UACC-62): 95% | growth at 100 µM (PC-3): 19% | growth at 0.01 µM (MDA-MB-435): 97% | IC50 (UO-31): 4.5 µM | GI50 (UO-31; read-out: GI50): 4.5 µM | CC50 (UO-31; [13]): > 100 µM | TGI (UO-31; read-out: TGI): > 100 µM | GI50 (UO-31; read-out: pGI50 (converted)): 4.47 µM | CC50 (UO-31; [14]): > 100 µM | TGI (UO-31; read-out: pTGI (converted)): > 100 µM | growth at 0.01 µM (Hs-578T [8]): 92% | growth at 1 µM (NCI/ADR-RES): 92% | growth at 0.01 µM (HCT-15): 94% | growth at 10 µM (SK-MEL-2): 64.9% | growth at 100 µM (U-251 [9]): 3% | growth at 0.1 µM (KM12 [10]): 95% | growth at 0.01 µM (KM12 [11]): 96% | growth at 100 µM (MDA-MB-231): -10% | growth at 0.01 µM (CAKI-1 [12]): 98% | growth at 100 µM (MOLT-4): 29% | growth at 0.01 µM (OVCAR-4): 99% | growth at 0.1 µM (786-0): 95% | growth at 100 µM (NCI-H460): 5%

COc1cc(Cl)cc(-c2nn(-c3cccc(NC(=O)Nc4ccc(Cl)c(Cl)c4)c3)cc2-c2ccncc2)c1
GI50 (SNB-75; read-out: GI50): 2.11 µM | CC50 (SNB-75; [13]): > 100 µM | TGI (SNB-75; read-out: TGI): 45.6 µM | GI50 (SNB-75; read-out: pGI50 (converted)): 2.14 µM | CC50 (SNB-75; [14]): > 100 µM | TGI (SNB-75; read-out: pTGI (converted)): 49 µM | GI50 (HOP-62; read-out: GI50): 3.36 µM | CC50 (HOP-62; [13]): > 100 µM | TGI (HOP-62; read-out: TGI): 35.1 µM | GI50 (HOP-62; read-out: pGI50 (converted)): 3.39 µM | CC50 (HOP-62; [14]): > 100 µM | TGI (HOP-62; read-out: pTGI (converted)): 35.5 µM | growth at 0.01 µM (SF-295): 87% | growth at 0.01 µM (Malme-3M [1]): 92% | growth at 0.1 µM (SK-OV-3): 90% | IC50 (U-251 [2]): 1.7 µM | GI50 (U-251 [2]; read-out: GI50): 1.7 µM | CC50 (U-251 [2]; [13]): 4.16 µM | TGI (U-251 [2]; read-out: TGI): 60.3 µM | GI50 (U-251 [2]; read-out: pGI50 (converted)): 1.7 µM | CC50 (U-251 [2]; [14]): 41.7 µM | TGI (U-251 [2]; read-out: pTGI (converted)): 6.03 µM | growth at 0.1 µM (CAKI-1 [3]): 102% | growth at 0.1 µM (Malme-3M [4]): 50% | growth at 0.01 µM (NCI-H322M [5]): 101% | growth at 100 µM (SF-539): -40% | growth at 0.1 µM (HCC 2998): 96% | growth at 1 µM (Hs-578T [6]): 99% | GI50 (NCI-H322M [7]; read-out: GI50): 3.26 µM | CC50 (NCI-H322M [7]; [13]): > 100 µM | TGI (NCI-H322M [7]; read-out: TGI): > 100 µM | GI50 (NCI-H322M [7]; read-out: pGI50 (converted)): 3.31 µM | CC50 (NCI-H322M [7]; [14]): > 100 µM | TGI (NCI-H322M [7]; read-out: pTGI (converted)): > 100 µM | growth at 0.01 µM (UACC-62): 95% | growth at 100 µM (PC-3): -24% | growth at 0.01 µM (MDA-MB-435): 93% | IC50 (UO-31): 1.89 µM | GI50 (UO-31; read-out: GI50): 1.59 µM | CC50 (UO-31; [13]): > 100 µM | TGI (UO-31; read-out: TGI): 15.2 µM | GI50 (UO-31; read-out: pGI50 (converted)): 1.91 µM | CC50 (UO-31; [14]): > 100 µM | TGI (UO-31; read-out: pTGI (converted)): 18.2 µM | growth at 0.01 µM (Hs-578T [8]): 93% | growth at 1 µM (NCI/ADR-RES): 78% | growth at 0.01 µM (HCT-15): 93% | growth at 10 µM (SK-MEL-2): -32.1% | growth at 100 µM (U-251 [9]): -68% | growth at 0.1 µM (KM12 [10]): 92% | growth at 0.01 µM (KM12 [11]): 96% | growth at 100 µM (MDA-MB-231): -70% | growth at 0.01 µM (CAKI-1 [12]): 96% | growth at 100 µM (MOLT-4): -7% | growth at 0.01 µM (OVCAR-4): 93% | growth at 0.1 µM (786-0): 98% | growth at 100 µM (NCI-H460): -8%

Source: ChEMBL document CHEMBL4308841, “Synthesis, in vitro antiproliferative activity, and kinase inhibitory effects of pyrazole-containing diarylureas and diarylamides” (Eur J Med Chem, 2018)
